Results: ChEMBL document CHEMBL3853350 (ACS Med Chem Lett, 2016)

Key:
[1] = AUC (0 to infinity) in cynomolgus monkey plasma at […] administered via oral gavage measured 24 hrs post dose by LC/MS/MS analysis; type: ADME, organism-based, Macaca fascicularis; parameters: dose 2.5 mg/kg, route oral, time infinity
[2] = Half life in Beagle dog plasma at 0.5 mg/kg, iv by LC/MS/MS analysis; type: ADME, organism-based, Canis lupus familiaris
Cytochrome P450 2C8 = biological target: T1, Cytochrome P450 2C8 (Homo sapiens, UniProt P10632); assay: Inhibition of CYP2C8 in human liver microsomes after 5 mins in presence of NADPH by LC-MS/MS analysis; type: ADME
T1 sequence (P10632 whole entry): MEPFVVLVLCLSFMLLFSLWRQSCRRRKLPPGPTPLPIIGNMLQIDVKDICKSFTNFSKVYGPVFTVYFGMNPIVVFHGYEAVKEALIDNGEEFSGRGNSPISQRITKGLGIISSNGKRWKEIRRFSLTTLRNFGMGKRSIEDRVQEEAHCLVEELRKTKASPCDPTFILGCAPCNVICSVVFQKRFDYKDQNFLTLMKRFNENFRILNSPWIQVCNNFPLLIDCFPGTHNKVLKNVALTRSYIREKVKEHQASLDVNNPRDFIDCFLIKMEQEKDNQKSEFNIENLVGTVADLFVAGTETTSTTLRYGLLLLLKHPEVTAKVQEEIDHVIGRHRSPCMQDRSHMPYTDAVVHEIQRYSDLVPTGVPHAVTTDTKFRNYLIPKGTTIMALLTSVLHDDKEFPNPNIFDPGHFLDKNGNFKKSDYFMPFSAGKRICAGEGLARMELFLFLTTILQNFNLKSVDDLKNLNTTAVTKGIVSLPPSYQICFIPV

Salmonella typhimurium = assay: Genotoxicity in Salmonella typhimurium by Ames test; type: toxicity, organism-based; settings: salmonella enterica subsp. enterica serovar typhimurium
[3] = Half life in human hepatocytes at 1 uM by LC/MS analysis; type: ADME, cell-based, Hepatocyte
[4] = Volume of distribution at steady state in CD-1 mouse plasma at 1 mg/kg, iv measured 24 hrs post dose by LC/MS/MS analysis; type: ADME, organism-based; settings: read-out: Vdss
Cytochrome P450 2C9 = Cytochrome P450 2C9 (Homo sapiens, UniProt P11712); assay: Inhibition of CYP2C9 in human liver microsomes after 5 mins in presence of NADPH by LC-MS/MS analysis; type: ADME
Chain of Cytochrome P450 2C9 (P11712 whole entry): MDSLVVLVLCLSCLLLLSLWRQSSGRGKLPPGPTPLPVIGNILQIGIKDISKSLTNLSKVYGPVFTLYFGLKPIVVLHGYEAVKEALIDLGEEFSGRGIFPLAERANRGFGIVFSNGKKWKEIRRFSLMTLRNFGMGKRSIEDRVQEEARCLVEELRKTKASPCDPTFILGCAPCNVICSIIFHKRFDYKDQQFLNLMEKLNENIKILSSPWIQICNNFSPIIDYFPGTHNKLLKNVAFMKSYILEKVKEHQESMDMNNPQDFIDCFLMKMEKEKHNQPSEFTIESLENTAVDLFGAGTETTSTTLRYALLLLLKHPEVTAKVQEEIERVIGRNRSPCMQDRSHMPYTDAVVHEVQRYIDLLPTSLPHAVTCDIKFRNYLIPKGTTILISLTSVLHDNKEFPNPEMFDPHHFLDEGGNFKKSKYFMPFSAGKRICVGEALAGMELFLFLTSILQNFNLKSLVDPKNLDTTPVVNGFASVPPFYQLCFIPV

[5] = Volume of distribution at steady state in Beagle dog plasma at 0.5 mg/kg, iv measured 24 hrs post dose by LC/MS/MS analysis; type: ADME, organism-based, Canis lupus familiaris; settings: read-out: Vdss
[6] = AUC (0 to infinity) in Sprague-Dawley rat plasma at 5 mg/kg administered via oral gavage measured 24 hrs post dose by LC/MS/MS analysis; type: ADME, organism-based; parameters: dose 5 mg/kg, time infinity, route oral
[7] = Half life in Sprague-Dawley rat plasma at 1 mg/kg, iv by LC/MS/MS analysis; type: ADME, organism-based
[8] = Half life in CD-1 mouse plasma at 1 mg/kg, iv by LC/MS/MS analysis; type: ADME, organism-based
[9] = Clearance in CD-1 mouse plasma at 1 mg/kg, iv measured 24 hrs post dose by LC/MS/MS analysis; type: ADME, organism-based
[10] = Cmax in CD-1 mouse plasma at 5 mg/kg administered via oral gavage measured 24 hrs post dose by LC/MS/MS analysis; type: ADME, organism-based; parameters: dose 5 mg/kg, route oral
[11] = Clearance in Sprague-Dawley rat plasma at 1 mg/kg, iv measured 24 hrs post dose by LC/MS/MS analysis; type: ADME, organism-based
[12] = Half life in cynomolgus monkey plasma at 0.5 mg/kg, iv by LC/MS/MS analysis; type: ADME, organism-based, Macaca fascicularis
[13] = Cmax in cynomolgus monkey plasma at […] administered via oral gavage measured 24 hrs post dose by LC/MS/MS analysis; type: ADME, organism-based, Macaca fascicularis; parameters: dose 2.5 mg/kg, route oral
Cytochrome P450 1A2 = biological target: T2, Cytochrome P450 1A2 (Homo sapiens, UniProt P05177); assay: Inhibition of CYP1A2 in human liver microsomes after 5 mins in presence of NADPH by LC-MS/MS analysis; type: ADME
T2 sequence (P05177 whole entry): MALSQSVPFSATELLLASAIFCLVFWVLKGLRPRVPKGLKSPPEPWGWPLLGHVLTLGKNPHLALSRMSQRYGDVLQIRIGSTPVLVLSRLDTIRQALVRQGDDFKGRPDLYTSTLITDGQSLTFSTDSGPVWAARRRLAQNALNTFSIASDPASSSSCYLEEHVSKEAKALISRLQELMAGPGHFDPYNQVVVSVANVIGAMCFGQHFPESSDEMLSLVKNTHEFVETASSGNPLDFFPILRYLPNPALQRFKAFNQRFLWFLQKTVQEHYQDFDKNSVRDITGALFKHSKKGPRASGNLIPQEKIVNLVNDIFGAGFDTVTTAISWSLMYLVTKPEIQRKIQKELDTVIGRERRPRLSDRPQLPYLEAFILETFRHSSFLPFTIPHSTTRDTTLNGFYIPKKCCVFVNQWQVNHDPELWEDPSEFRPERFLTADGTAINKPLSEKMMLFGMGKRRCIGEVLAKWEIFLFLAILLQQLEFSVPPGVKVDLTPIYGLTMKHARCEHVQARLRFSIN

Cytochrome P450 2C19 = Cytochrome P450 2C19 (Homo sapiens, UniProt P33261); assay: Inhibition of CYP2C19 in human liver microsomes after 5 mins in presence of NADPH by LC-MS/MS analysis; type: ADME
Chain of Cytochrome P450 2C19 (P33261 whole entry): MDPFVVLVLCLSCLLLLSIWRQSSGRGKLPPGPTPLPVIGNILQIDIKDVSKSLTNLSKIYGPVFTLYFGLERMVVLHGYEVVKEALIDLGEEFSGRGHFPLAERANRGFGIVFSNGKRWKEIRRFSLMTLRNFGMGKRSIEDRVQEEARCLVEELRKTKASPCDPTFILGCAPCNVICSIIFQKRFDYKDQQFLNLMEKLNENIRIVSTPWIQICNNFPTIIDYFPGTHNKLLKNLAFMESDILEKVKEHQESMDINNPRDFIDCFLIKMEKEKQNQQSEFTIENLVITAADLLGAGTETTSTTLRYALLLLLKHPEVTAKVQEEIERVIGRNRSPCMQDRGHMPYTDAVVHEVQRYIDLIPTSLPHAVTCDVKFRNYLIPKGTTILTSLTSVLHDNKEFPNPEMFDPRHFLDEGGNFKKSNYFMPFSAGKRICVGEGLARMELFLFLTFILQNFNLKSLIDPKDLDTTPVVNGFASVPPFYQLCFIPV

[14] = Fraction unbound in dog plasma at 1 uM after 5 hrs by rapid equilibrium dialysis based LC-MS/MS analysis; type: ADME, cell-free, Canis lupus familiaris
[15] = Half life in mouse hepatocytes at 1 uM by LC/MS analysis; type: ADME, cell-based, Hepatocyte
[16] = AUC (0 to infinity) in CD-1 mouse plasma at 5 mg/kg administered via oral gavage measured 24 hrs post dose by LC/MS/MS analysis; type: ADME, organism-based; parameters: dose 5 mg/kg, time infinity, route oral
[17] = Fraction unbound in human plasma at 1 uM after 5 hrs by rapid equilibrium dialysis based LC-MS/MS analysis; type: ADME, cell-free
Cytochrome P450 2D6 = Cytochrome P450 2D6 (Homo sapiens, UniProt P10635); assay: Inhibition of CYP2D6 in human liver microsomes after 5 mins in presence of NADPH by LC-MS/MS analysis; type: ADME
Chain of Cytochrome P450 2D6 (P10635 whole entry): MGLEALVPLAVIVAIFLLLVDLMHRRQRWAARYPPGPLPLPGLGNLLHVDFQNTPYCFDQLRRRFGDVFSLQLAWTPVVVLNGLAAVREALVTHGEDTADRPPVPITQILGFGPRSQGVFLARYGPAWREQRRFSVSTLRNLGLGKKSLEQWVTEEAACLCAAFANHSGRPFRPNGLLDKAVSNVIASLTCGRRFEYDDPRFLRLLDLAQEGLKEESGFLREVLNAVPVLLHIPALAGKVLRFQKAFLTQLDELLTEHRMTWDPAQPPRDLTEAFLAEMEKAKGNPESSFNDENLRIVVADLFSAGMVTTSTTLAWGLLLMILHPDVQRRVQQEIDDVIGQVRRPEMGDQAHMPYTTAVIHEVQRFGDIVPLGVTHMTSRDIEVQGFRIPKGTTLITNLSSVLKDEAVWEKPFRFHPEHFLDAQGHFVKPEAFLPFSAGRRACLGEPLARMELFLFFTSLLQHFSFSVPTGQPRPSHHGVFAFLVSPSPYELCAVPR

[18] = Oral bioavailability in cynomolgus monkey plasma at […] measured 24 hrs post dose by LC/MS/MS analysis; type: ADME, organism-based, Macaca fascicularis
[19] = Clearance in Beagle dog plasma at 0.5 mg/kg, iv measured 24 hrs post dose by LC/MS/MS analysis; type: ADME, organism-based, Canis lupus familiaris
[20] = Volume of distribution at steady state in cynomolgus monkey plasma at 0.5 mg/kg, iv measured 24 hrs post dose by LC/MS/MS analysis; type: ADME, organism-based, Macaca fascicularis; settings: read-out: Vdss
[21] = Fraction unbound in monkey plasma at 1 uM after 5 hrs by rapid equilibrium dialysis based LC-MS/MS analysis; type: ADME, cell-free, Macaca mulatta; settings: rhesus monkey
[22] = biological target: Voltage-gated inwardly rectifying potassium channel KCNH2 (Homo sapiens, UniProt Q12809); assay: Inhibition of human ERG
Chain of Voltage-gated inwardly rectifying potassium channel KCNH2 (Q12809 whole entry): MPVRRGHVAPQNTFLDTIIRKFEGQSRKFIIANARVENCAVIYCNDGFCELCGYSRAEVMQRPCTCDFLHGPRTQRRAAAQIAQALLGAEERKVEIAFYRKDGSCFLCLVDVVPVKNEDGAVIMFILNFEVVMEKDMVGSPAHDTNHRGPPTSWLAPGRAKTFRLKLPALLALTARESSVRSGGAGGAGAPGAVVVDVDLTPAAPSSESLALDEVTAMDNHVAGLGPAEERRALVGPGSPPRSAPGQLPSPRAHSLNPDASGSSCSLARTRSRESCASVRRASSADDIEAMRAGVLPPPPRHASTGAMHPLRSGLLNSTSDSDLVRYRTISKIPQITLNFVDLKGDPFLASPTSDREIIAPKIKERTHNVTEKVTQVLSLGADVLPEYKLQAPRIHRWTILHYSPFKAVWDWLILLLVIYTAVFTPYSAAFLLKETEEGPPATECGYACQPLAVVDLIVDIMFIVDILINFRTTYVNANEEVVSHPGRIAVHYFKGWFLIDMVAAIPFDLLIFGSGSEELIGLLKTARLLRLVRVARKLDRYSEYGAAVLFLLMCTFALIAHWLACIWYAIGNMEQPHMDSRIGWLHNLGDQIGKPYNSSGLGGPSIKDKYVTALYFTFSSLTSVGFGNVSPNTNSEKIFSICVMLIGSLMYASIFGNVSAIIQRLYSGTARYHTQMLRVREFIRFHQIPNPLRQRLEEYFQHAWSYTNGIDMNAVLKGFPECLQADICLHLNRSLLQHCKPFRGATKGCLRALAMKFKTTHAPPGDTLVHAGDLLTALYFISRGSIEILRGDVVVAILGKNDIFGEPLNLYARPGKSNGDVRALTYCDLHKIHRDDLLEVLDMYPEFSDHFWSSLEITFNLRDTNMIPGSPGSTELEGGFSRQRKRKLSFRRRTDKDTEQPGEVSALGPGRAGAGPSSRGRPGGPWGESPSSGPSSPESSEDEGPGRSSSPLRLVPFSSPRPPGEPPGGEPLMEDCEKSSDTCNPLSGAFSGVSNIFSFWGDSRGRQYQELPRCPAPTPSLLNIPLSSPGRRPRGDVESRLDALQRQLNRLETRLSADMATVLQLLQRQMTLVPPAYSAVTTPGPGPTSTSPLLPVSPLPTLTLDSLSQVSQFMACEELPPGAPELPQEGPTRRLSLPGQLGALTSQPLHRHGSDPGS

[23] = Oral bioavailability in Sprague-Dawley rat plasma at 5 mg/kg measured 24 hrs post dose by LC/MS/MS analysis; type: ADME, organism-based
[24] = Fraction unbound in rat plasma at 1 uM after 5 hrs by rapid equilibrium dialysis based LC-MS/MS analysis; type: ADME, cell-free
[25] = Oral bioavailability in CD-1 mouse plasma at 5 mg/kg measured 24 hrs post dose by LC/MS/MS analysis; type: ADME, organism-based
[26] = Clearance in cynomolgus monkey plasma at 0.5 mg/kg, iv measured 24 hrs post dose by LC/MS/MS analysis; type: ADME, organism-based, Macaca fascicularis

AUC(0-inf) at 24 h [1]: 4030 ng·h/mL | half-life [2]: 6.7 h | IC50 (Cytochrome P450 2C8): > 20 µM | half-life at 1 µM [3]: > 6 h | Vd [4]: 0.8 L/kg | IC50 (Cytochrome P450 2C9): > 20 µM | Vd [5]: 1.3 L/kg | AUC(0-inf) [6]: 8050 ng·h/mL | half-life [7]: 4.4 h | half-life [8]: 3.2 h | clearance [9]: 3.6 mL/min/kg | Cmax [10]: 3600 nM | clearance [11]: 4.4 mL/min/kg | half-life [12]: 4.3 h | Cmax at 24 h [13]: 560 nM | IC50 (Cytochrome P450 1A2): > 20 µM | IC50 (Cytochrome P450 2C19): > 20 µM | fraction unbound at 5 h, 1 µM [14]: 0.028 | half-life at 1 µM [15]: > 6 h | AUC(0-inf) [16]: 20600 ng·h/mL | fraction unbound at 5 h, 1 µM [17]: 0.011 | IC50 (Cytochrome P450 2D6): > 20 µM | bioavailability at 24 h [18]: 31% | clearance [19]: 2.8 mL/min/kg | Vd [20]: 1.3 L/kg | fraction unbound at 5 h, 1 µM [21]: 0.04 | bioavailability [23]: 57% | fraction unbound at 5 h, 1 µM [24]: 0.028 | bioavailability [25]: 88% | clearance [26]: 4.3 mL/min/kg
Compound: C[C@H](NC(=O)c1c(N)nn2cccnc12)c1cc2cccc(C#Cc3cnn(C)c3)c2c(=O)n1-c1ccccc1 [EGANELISIB]
Activity (Salmonella typhimurium): Non-Toxic | IC50 [22]: > 10 µM
